Here are results for 2 compounds from publication PMC6381791, “Filamentous Aggregates Are Fragmented by the Proteasome Holoenzyme” (Cell Reports, 2019).

For experiment [1], the target named is T1, 26S proteasome holoenzyme (proteolytic core sites) (Homo sapiens, UniProt P28074).
T1 construct: gene PSMB5; 26S holoenzyme (20S core with one or two 19S caps) purified from HEK293T via Rpn11-His6-TEV-biotin, TEV eluted; with Proteasome subunit beta type-1; Proteasome subunit beta type-2; Proteasome subunit beta type-3; Proteasome subunit beta type-4; Proteasome subunit alpha type-1; Proteasome subunit alpha type-2; Proteasome subunit alpha type-3; Proteasome subunit alpha type-4; Proteasome subunit alpha type-5; Proteasome subunit alpha type-6; Proteasome subunit alpha type-7; 26S proteasome non-ATPase regulatory subunit 14
Put plainly: AMC fluorescence ([…] nm). The experiment is classed as biochemical. Conditions: 1 μM substrate, 40 nM proteasome, alone or with heparin or tau aggregates.

Experiment [2] concerns the target T2, α-synuclein (αS), fibrils (Homo sapiens, UniProt P37840).
T2 construct: gene SNCA; untagged wild-type recombinant from E. coli BL21(DE3) pLysS; fibrils assembled in PBS with shaking
Put plainly: TIRF single-aggregate fluorescence. In kind it is binding. The settings on record: 30 nM pFTAA in PBS, 100 nM αS (monomer equivalent); binds amyloid fibrils.

Numbered stars: 1 amine (or outer) side, 2 acyl side, 3 side chain; on linkers, the order of the positions; unused ones are H or OH. Peptide text beside a SMILES is read from it. * marks the point of attachment. AMC = Cc1cc(=O)oc2cc(N*)ccc12; Suc = O=C(CCC(=O)[*:2])[*:1]

As for `Cc1cc(=O)oc2cc(NC(=O)[C@H](Cc3ccc(O)cc3)NC(=O)[C@@H](NC(=O)[C@H](CC(C)C)NC(=O)[C@H](CC(C)C)NC(=O)CCC(=O)O)C(C)C)ccc12` [LLVY-AMC] (Suc-LLVY-{AMC}), in experiment [1], the “AMC fluorescence (340/440 nm)” value is on record as “proteasomal peptidase activity against a model substrate, suc-Leu-Leu-Val-Tyr-7-amino-4-methylcoumarin (LLVY-AMC)”.

As to `O=C(O)Cc1cc(-c2ccc(C(=O)O)s2)sc1-c1ccc(-c2sc(-c3ccc(C(=O)O)s3)cc2CC(=O)O)s1` [pFTAA], the TIRF single-aggregate fluorescence result in experiment [2] was “Fibrils assembled from αS could be reproducibly detected”.
